Experimental data: ChEMBL document CHEMBL1128696, “Hydroxylated aromatic inhibitors of HIV-1 integrase” (J Med Chem, 1995)

Biological target: Human immunodeficiency virus type 1 integrase (Human immunodeficiency virus 1, UniProt Q7ZJM1)
Assay: In vitro inhibitory activity against HIV-1 integrase.

Human immunodeficiency virus type 1 integrase, sequence (Q7ZJM1 whole entry): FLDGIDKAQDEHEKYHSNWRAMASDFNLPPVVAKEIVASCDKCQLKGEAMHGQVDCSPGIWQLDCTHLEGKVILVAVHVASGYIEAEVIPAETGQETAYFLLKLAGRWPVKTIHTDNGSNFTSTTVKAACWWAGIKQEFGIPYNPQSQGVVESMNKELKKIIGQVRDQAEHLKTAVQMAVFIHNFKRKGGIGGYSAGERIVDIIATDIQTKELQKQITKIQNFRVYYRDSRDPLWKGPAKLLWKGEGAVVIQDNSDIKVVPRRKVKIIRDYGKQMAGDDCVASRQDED

| IC50 [µM] | SMILES |
| --- | --- |
| > 100 | O=C(/C=C/c1cc(O)ccc1O)OCCc1ccccc1 |
| 60 | COc1ccc(/C=C/C(=O)OCCc2ccccc2)cc1O |
| 68 | O=C(OCCc1ccccc1)c1ccc2cc(O)c(O)cc2c1 |
| 2 | O=C(/C=C/c1cc(O)c(O)c(O)c1)OCCc1ccccc1 |
| 55 | O=C(/C=C/c1cc(O)c(O)cc1O)OCCc1ccccc1 |
| 4 | O=C(CCc1ccc(O)c(O)c1)NCCc1cc(O)c(O)c(O)c1 |
| 8 | O=C(/C=C/c1ccc(O)c(O)c1)OCCCc1ccccc1 |
| > 100 | O=C(CCc1ccc(O)c(O)c1)NCCc1ccccc1 |
| 2 | O=C(/C=C/c1ccc(O)c(O)c1O)OCCc1ccccc1 |
| > 100 | O=C(CCc1ccccc1)NCCc1ccc(O)c(O)c1 |
| 18 | O=C(OCCc1ccccc1)c1ccc2c(O)c(O)ccc2c1 |
| 48 | N=c1oc2cc(O)c(O)cc2cc1C(N)=O |
| 15 | O=C(/C=C/c1ccc(O)c(O)c1)OCCc1cccc2ccccc12 |
| 44 | O=C(/C=C/c1ccc(O)c(O)c1)OCCc1ccc2ccccc2c1 |
| > 100 | COc1ccc(/C=C/C(=O)OCCc2ccccc2)cc1OC |
| > 100 | COC(=O)c1cc2cc(O)c(O)cc2cn1 |

| IC50 [µM] | SMILES |
| --- | --- |
| 93 | N=c1oc2c(O)c(O)ccc2cc1C(N)=O |
| 11 | O=C(CCc1ccc(O)c(O)c1)OCCc1ccccc1 |
| > 100 | O=C(Cc1ccccc1)NCCc1ccc(O)c(O)c1 |
| 3 | O=C(CCc1ccc(O)c(O)c1)NCCc1ccc(O)c(O)c1 |
| 8 | COC(=O)c1ccc2c(O)c(O)ccc2c1 |
| > 100 | N#C/C(=C\c1ccc(O)c(O)c1)C(N)=O |
| > 100 | O=C(NCc1ccccc1)c1cc2cc(O)c(O)cc2cn1 |
| > 100 | O=C(/C=C/c1ccc(F)c(F)c1)OCCc1ccccc1 |
| 14 | COC(=O)c1cc2ccc(O)c(O)c2cn1 |
| > 100 | COc1cc(/C=C/C(=O)OCCc2ccccc2)ccc1O |
| 75 | O=C(NCc1ccccc1)c1cc2ccc(O)c(O)c2cn1 |
| 40 | O=C(NCCc1ccccc1)c1cc2ccc(O)c(O)c2cn1 |
| 9 | O=C(/C=C/c1ccc(O)c(O)c1)OCc1ccccc1 [BENZYL CAFFEATE] |
| 7 | O=C(/C=C/c1ccc(O)c(O)c1)OCCc1ccccc1 [CAFFEIC ACID PHENETHYL ESTER] |
| > 100 | CCOC(=O)/C=C/c1ccc(O)c(O)c1 [ETHYL CAFFEATE] |
| > 100 | COC(=O)/C=C/c1ccc(O)c(O)c1 [METHYLCAFFEATE] |
